Laboratory results taken from patent US9073858B2, “Methods of targeted drug development” (priority 2010, dated 2015).
Like-named read-outs stand apart in the source and are kept apart here.

Key:
[1] = molecular target: T1, EGFR (Homo sapiens, UniProt P00533); experiment: EGFR in-cell Western (ICW) screening protocol; assay type: cell-based; set-up: unit not given here; details: for ICW Screen: initial screen
T1 construct: endogenous in cells; host or cells: A431 cells (ATCC CRL-1555)
Outline: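 Serum-starved cells treated with compound 4 h at 37 °C, then stimulated with EGF (20 or 0 ng/ml solution added) in its continued presence. In-cell Western on fixed cells: phospho-EGFR (800 channel) normalised to total EGFR (700 channel), % inhibition calculated against EGF-stimulated and unstimulated no-compound wells.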

[2] = system: MDBK line; experiment: MTT Cell Proliferation Assay, MDBK line; assay type: cell-based, bovine
Outline: (§1)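 Cells plated overnight, then exposed 3 days at 37 °C, 5% CO2 to compound in growth medium with 0.5% FBS and 0.5% DMSO final (0.5% DMSO as control).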

[3] = system: epithelial carcinoma A431 cell line; experiment: MTT Cell Proliferation Assay, A431 cell line; assay type: cell-based; details: for MTT (10 Point follow-up) ratio / MTT-72 h A431/MDBK (ratio): value in brackets; for MTT (10 Point follow-up) ratio: numerically MDBK over A431; for MTT-72 h A431/MDBK (ratio): numerically MDBK value over A431 value
Outline: as §1

[4] = Bos taurus, MDBK, 10 point follow-up, second value of pair, read-out: MTT (10 Point follow-up) MDBK
[5] = Homo sapiens, A-431, 10 point follow-up, first value of pair, read-out: MTT (10 Point follow-up) A431
[6] = Bos taurus, MDBK, 72 h, second value of A431/MDBK pair, read-out: MTT-72 h MDBK
[7] = Homo sapiens, A-431, 72 h, 72 h, first value of A431/MDBK pair, read-out: MTT-72 h A431
[8] = 72 h, first value of A431/MDBK pair, read-out: MTT-72 h A431

T1 sequence (P00533 25-1210): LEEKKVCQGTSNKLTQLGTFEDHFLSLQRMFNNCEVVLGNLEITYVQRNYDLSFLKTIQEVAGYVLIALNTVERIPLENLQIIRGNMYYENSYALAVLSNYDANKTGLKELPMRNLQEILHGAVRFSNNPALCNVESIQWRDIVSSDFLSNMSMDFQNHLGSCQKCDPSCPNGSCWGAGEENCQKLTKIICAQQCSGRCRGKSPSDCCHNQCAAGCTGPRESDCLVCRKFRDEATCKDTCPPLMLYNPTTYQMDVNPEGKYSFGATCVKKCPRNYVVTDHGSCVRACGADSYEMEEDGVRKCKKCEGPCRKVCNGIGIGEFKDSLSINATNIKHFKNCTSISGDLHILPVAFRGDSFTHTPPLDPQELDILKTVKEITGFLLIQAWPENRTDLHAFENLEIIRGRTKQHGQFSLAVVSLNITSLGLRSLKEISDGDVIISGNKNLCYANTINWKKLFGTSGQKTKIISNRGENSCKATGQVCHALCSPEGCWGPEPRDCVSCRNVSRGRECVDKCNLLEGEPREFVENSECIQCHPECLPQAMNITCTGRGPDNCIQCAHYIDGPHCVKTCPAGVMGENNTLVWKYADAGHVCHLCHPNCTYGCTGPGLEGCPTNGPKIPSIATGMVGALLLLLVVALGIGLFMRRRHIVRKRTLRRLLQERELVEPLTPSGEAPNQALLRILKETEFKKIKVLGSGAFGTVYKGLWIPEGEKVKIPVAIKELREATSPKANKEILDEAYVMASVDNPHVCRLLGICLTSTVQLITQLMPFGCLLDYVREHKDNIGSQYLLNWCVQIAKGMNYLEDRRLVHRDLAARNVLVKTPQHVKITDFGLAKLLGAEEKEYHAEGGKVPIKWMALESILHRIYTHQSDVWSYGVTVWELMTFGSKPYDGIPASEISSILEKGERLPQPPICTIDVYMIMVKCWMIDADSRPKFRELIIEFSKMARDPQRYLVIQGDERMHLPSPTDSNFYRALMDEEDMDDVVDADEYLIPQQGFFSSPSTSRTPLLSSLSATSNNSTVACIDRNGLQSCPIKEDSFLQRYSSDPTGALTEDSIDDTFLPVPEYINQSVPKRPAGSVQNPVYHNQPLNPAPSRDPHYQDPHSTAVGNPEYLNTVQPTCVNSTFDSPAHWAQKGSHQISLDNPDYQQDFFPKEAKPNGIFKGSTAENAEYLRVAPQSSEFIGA

SMILES | ICW Screen [1] | IC50 [3, 5] | ICW Re-Test [1] | IC50 [3, 7] | IC50 [3, 8] | IC50 [2, 4] | MTT (10 Point follow-up) ratio [3] | IC50 [2, 6] | MTT-72 h A431/MDBK (ratio) ([3]; 72 h) | IC50 ([2]; 72 h, second value of A431/MDBK pair, read-out: MTT-72 h MDBK)
COc1ccc(Br)cc1C(Nc1ccccn1)c1cc(Cl)c2cccnc2c1O (centres unmarked) [compound 10108] | 15.91 | 1.13 µM |  |  |  | 1.73 µM | 1.53 |  |  | 
Oc1c(C(Nc2ccc(F)cc2)c2ccncc2)ccc2cccnc12 (centres unmarked) [compound 11153] | 28.24 |  | 20.64 | 13.1 µM |  |  |  | 5.58 µM | 0.43 | 
Oc1c(C(Nc2cccnc2)c2ccc(C(F)(F)F)cc2)ccc2cccnc12 (centres unmarked) [compound 10942] | 56.15 |  | 95.43 | 33.3 µM |  |  |  | 36.2 µM | 1.09 | 
COc1cc(C(Nc2cc(C)ccn2)c2ccc3cccnc3c2O)ccc1O (centres unmarked) [compound 1973] | 54.76 |  | 53.31 | 14.2 µM |  |  |  | 7.5 µM | 0.53 | 
C=CCOc1cccc(C(Nc2cc(C)ccn2)c2ccc3cccnc3c2O)c1 (centres unmarked) [compound 10144] | 39.73 |  | 21.02 | 5.67 µM |  |  |  | 5.29 µM | 0.93 | 
CCOc1cc(C(NC(=O)C(C)(C)C)c2cc([N+](=O)[O-])c3cccnc3c2O)ccc1O (centres unmarked) [compound 10941] | 27.61 | 1.12 µM | 67.81 | 5.92 µM |  | 1.75 µM | 1.56 | 6.05 µM | 1.02 | 
CCOc1ccc(C(Nc2cccnc2)c2cc(Cl)c3cccnc3c2O)cc1 (centres unmarked) [compound 10945] | 82.22 |  | 81.41 | 2.79 µM |  |  | 0.76 | 1.87 µM | 0.67 | 
CCOc1cc(C(Nc2cc(C)ccn2)c2ccc3cccnc3c2O)ccc1OC (centres unmarked) [compound 1991] | 47.06 |  | 30.75 | 9.08 µM |  |  |  | 7.14 µM | 0.79 | 
Cc1cccc(NC(c2ccc3c(c2)OCO3)c2ccc3cccnc3c2O)n1 (centres unmarked) [compound 10055] | 28.09 |  |  |  | 12.1 µM |  |  |  | 0.68 | 8.17 µM
Fc1cccc(C(Nc2ccccn2)c2ccc3cccnc3c2)c1 (centres unmarked) [compound 11191] | 40.32 |  | 22.02 | 5.59 µM |  |  |  | 5.53 µM | 0.99 | 
Cc1cccc(NC(c2cccnc2)c2ccc3cccnc3c2O)n1 (centres unmarked) [compound 10975] | 53.5 |  | 34.86 | 52.2 µM |  |  |  | 35.6 µM | 0.68 | 
Oc1c(C(Nc2ccccn2)c2cccc(Br)c2)cc(Cl)c2cccnc12 (centres unmarked) [compound 10100] | 18.12 | 1.06 µM |  |  |  | 1.72 µM | 1.62 |  |  | 

Continued, in another order:

ICW Screen [1] | IC50 [3, 5] | ICW Re-Test [1] | IC50 [3, 7] | IC50 [3, 8] | SMILES | IC50 [2, 4] | MTT (10 Point follow-up) ratio [3] | IC50 [2, 6] | MTT-72 h A431/MDBK (ratio) ([3]; 72 h) | IC50 ([2]; 72 h, second value of A431/MDBK pair, read-out: MTT-72 h MDBK)
74.54 |  | 92.26 | 3.83 µM |  | CCN(CC)c1ccc(C(Nc2ccccn2)c2ccc3cccnc3c2O)cc1 (centres unmarked) [compound 10965] |  |  | 3.83 µM | 1.00 | 
44.94 | 5.46 µM | 15.3 |  |  | Oc1c(C(Nc2ccccn2)c2ccc(Br)cc2)ccc2cccnc12 (centres unmarked) [compound 10048] | 5.23 µM | 0.96 |  |  | 
36.47 | 0.545 µM |  | 0.79 µM |  | Oc1c(C(Nc2ccccn2)c2cccc(Cl)c2Cl)ccc2cccnc12 (centres unmarked) [compound 10051] | 0.974 µM | 1.79 | 1.42 µM | 1.80 | 
30.86 |  | 41.04 | 5.42 µM |  | CCOc1ccc(C(Nc2ccccn2)c2cc(Cl)c3cccnc3c2O)cc1 (centres unmarked) [compound 10953] |  |  | 5.56 µM | 1.03 | 
27.62 |  |  |  | 11.4 µM | CCOc1ccc(NC(c2ccccn2)c2ccc3cccnc3c2O)cc1 (centres unmarked) [compound 11000] |  |  | 11.2 µM | 0.99 | 
38.96 |  | 30.44 | 5.33 µM |  | COc1ccc(C(Nc2ccccn2)c2ccc3cccnc3c2O)cc1 (centres unmarked) [compound 10524] |  |  | 5.09 µM | 0.95 | 
